Positions of bridges follow the written chain, without caps; N, C: chain ends. No end group written: not given here.
Tests used:
Assay in all cases: Affinity (Ki,app) for protease
Type in all cases: biochemical
human urine kallikrein = target: T1, human urine kallikrein (Homo sapiens, UniProt P06870)
T1 construct: from tissue; host or cells: urine (from the name only)

[1] = target: T2, porcine pancreatic kallikrein (Sus scrofa, UniProt P00752)
T2 construct: from tissue; host or cells: pancreas (from the name only)
T2 sequence (P00752 8-246): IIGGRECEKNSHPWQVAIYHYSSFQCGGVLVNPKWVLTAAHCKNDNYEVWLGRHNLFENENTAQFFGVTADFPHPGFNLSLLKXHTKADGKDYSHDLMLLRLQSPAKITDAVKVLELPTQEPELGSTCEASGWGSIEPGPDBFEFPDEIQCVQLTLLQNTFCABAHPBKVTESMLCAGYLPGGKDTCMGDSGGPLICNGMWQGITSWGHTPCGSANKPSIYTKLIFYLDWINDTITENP

human C1r, activated = target: T3, human C1r, activated (Homo sapiens, UniProt P00736)
T3 sequence (P00736 18-463 limits assumed): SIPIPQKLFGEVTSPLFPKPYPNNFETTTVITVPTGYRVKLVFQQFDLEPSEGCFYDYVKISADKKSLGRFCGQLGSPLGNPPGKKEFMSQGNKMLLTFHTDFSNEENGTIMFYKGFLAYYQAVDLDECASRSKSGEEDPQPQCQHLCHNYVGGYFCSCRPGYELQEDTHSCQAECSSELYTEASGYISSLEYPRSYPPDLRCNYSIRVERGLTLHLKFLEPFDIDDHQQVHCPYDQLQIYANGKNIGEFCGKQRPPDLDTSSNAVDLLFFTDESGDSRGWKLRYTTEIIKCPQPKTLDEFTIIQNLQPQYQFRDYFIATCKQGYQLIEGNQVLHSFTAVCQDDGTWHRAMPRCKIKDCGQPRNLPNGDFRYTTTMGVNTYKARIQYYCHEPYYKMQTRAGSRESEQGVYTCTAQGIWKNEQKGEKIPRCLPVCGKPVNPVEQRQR
T3 sequence (P00736 464-705 limits assumed): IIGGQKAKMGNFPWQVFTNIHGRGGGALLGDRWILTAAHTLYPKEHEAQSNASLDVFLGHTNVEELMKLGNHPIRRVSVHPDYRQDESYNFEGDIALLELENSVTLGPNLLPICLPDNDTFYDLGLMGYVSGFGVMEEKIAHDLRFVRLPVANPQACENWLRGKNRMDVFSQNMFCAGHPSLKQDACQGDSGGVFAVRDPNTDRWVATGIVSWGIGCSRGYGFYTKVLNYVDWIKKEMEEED

human C1s, activated = target: T4, human C1s, activated (Homo sapiens, UniProt P09871)
T4 sequence (P09871 16-437 limits assumed): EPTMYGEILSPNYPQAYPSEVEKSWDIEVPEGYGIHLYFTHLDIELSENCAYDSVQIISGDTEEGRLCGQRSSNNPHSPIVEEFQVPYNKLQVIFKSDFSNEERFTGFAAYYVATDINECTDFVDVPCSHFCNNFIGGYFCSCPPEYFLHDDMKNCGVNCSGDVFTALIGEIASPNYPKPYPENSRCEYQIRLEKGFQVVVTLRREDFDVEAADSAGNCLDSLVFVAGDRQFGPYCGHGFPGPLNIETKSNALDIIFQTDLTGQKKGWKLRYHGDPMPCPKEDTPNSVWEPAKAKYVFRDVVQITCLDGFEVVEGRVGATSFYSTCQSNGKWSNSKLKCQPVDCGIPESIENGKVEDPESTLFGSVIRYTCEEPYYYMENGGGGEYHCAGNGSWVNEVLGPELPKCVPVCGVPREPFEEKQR
T4 sequence (P09871 438-688 limits assumed): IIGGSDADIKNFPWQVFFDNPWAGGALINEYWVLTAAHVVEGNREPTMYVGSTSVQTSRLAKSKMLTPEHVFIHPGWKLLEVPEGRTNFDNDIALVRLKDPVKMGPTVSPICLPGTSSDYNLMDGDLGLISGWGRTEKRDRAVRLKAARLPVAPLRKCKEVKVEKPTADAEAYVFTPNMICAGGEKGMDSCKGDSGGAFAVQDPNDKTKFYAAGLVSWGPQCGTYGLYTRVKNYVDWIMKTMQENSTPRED

human plasma factor XIa = target: T5, human plasma factor XIa (Homo sapiens, UniProt P03951)
T5 construct: human plasma factor XIa; from tissue; host or cells: plasma (from the name only)
T5 sequence (P03951 19-387 limits assumed): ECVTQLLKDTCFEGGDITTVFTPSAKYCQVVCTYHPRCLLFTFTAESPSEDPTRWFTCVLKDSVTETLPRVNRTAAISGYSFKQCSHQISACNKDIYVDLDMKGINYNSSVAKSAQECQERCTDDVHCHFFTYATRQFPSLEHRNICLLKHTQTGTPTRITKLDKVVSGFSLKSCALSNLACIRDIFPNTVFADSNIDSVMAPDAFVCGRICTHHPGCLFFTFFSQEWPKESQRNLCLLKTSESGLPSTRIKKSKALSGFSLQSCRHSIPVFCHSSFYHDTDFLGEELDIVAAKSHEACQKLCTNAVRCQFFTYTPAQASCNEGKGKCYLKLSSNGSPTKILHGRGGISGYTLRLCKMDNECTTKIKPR
T5 sequence (P03951 388-625 limits assumed): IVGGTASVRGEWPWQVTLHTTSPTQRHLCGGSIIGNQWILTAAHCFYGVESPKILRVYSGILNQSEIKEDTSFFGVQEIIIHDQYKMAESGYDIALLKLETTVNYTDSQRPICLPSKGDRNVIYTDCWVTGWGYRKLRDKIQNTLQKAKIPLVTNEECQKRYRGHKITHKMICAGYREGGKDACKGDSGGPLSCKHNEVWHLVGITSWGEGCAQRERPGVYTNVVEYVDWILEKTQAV

human plasmin = target: T6, human plasmin (Homo sapiens, UniProt P00747)
T6 construct: human plasmin
T6 sequence (P00747 97-580 limits assumed): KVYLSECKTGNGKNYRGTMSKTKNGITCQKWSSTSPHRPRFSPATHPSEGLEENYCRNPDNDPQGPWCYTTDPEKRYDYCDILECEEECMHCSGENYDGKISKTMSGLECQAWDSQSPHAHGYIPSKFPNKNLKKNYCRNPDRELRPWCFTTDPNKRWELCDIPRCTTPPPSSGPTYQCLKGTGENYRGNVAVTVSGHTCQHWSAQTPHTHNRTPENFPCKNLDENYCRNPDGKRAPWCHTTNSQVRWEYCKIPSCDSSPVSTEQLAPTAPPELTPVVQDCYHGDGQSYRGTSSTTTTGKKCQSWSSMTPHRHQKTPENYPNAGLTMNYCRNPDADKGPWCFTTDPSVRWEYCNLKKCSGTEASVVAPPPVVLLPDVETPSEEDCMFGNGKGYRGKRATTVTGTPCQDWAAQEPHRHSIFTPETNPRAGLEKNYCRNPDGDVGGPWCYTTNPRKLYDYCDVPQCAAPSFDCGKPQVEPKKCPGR
T6 sequence (P00747 581-810 limits assumed): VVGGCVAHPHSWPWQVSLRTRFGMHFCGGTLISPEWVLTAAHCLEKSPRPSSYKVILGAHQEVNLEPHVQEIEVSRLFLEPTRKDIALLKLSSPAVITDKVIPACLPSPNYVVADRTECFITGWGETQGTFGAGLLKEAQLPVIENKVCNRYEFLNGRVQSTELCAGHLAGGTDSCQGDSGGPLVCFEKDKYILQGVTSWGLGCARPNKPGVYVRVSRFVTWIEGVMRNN

[2] = target: T7, human neutrophil elastase (Homo sapiens, UniProt P08246)
T7 sequence (P08246 30-267): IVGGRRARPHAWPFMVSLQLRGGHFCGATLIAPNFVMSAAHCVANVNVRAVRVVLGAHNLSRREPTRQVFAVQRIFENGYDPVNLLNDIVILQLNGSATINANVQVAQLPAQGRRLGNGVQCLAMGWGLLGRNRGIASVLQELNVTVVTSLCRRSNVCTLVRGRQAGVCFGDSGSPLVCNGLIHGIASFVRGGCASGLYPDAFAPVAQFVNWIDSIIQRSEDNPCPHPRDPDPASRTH

human plasma thrombin = target: T8, human plasma thrombin (Homo sapiens, UniProt P00734)
T8 construct: human plasma thrombin; from tissue; host or cells: plasma (from the name only)

human plasma factor XIIa = target: human plasma factor XIIa
Sequence of human plasma factor XIIa (P00748 373-615 limits assumed): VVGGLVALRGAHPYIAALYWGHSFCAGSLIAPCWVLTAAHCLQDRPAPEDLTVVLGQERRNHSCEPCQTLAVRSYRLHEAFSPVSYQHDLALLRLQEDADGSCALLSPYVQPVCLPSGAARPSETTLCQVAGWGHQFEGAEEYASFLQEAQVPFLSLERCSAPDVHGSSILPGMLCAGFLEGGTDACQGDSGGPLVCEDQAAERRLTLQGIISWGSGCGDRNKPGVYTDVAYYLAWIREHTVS

T1 sequence (P06870 25-262): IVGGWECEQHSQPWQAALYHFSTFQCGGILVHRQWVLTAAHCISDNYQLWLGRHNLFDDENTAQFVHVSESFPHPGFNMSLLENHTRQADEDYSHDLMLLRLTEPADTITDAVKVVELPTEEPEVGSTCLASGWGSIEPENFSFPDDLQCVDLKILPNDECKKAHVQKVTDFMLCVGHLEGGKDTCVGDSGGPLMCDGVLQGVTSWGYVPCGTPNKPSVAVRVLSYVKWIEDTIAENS

Ki (human plasma factor XIIa)	Substance	Ki (human urine kallikrein)	Ki [1]	Ki (human C1r, activated)	Ki (human C1s, activated)	Ki (human plasma factor XIa)	Ki (human plasmin)	Ki [2]	Ki (human plasma thrombin)
–	EAMHSFCAFKADDGPCRAAHPRWFFNIFTRQCEEFIYGGCEGNQNRFESLEECKKMCTRD (disulfide 7-57, 16-40, 32-53) [PEP-1]	> 100 µM	27 µM	> 200 µM	> 20 µM	0.01 µM	0.14 µM	> 20 µM	> 20 µM
> 100 µM	aprotinin [reference compound]	–	–	–	> 100 µM	–	–	–	> 100 µM

— patent US8748368B2, “Methods for preserving organs and tissues” (DYAX Corp., priority 2002, dated 2014)
